The text below walks through data of publication PMC5784128, “Glucansucrase (mutant) enzymes from Lactobacillus reuteri 180 efficiently transglucosylate Stevia component rebaudioside A, resulting in a superior taste” (Scientific Reports, 2018).

This assay concerns the target T1, Gtf180-ΔN (Limosilactobacillus reuteri, UniProt Q5SBN3, Q1140E).
T1 construct: N-terminally truncated fragment (first 741 residues removed), 117 kDa; start 742 derived from the printed truncation
The experiment in a line: HPLC time course of transglucosylation. Format: biochemical. Conditions: acceptor substrate; 84 mM RebA, 282 mM sucrose donor, 5 U/mL enzyme, 1 mM CaCl2, pH 4.7, 37 °C.

T1 sequence (Q5SBN3 entry or part of it Q1140E): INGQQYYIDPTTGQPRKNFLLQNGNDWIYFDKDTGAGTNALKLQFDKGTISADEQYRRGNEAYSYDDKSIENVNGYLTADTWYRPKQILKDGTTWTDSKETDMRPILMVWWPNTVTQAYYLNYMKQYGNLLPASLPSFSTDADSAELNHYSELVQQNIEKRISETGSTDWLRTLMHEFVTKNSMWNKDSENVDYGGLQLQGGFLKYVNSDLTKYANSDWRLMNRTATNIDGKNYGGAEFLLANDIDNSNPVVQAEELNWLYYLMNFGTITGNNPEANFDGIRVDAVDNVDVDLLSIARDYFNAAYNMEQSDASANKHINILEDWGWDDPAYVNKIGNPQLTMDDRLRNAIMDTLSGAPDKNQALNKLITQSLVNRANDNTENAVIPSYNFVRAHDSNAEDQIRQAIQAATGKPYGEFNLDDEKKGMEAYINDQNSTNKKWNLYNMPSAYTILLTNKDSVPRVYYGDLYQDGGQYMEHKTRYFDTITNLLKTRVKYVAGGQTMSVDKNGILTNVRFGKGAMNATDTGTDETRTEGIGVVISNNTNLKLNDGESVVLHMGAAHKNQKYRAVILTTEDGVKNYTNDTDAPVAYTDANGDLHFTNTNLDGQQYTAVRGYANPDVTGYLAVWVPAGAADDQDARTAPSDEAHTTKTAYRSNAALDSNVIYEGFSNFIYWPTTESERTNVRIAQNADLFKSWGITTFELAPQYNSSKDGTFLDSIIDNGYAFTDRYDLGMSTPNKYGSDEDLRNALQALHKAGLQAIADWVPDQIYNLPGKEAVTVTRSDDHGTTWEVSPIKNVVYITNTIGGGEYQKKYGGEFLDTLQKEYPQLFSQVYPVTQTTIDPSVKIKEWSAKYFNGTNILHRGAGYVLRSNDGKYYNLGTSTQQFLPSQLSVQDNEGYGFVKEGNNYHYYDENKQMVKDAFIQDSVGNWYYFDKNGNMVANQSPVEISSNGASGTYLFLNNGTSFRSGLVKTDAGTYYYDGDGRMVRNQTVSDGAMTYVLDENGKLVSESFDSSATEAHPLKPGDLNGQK

Regarding `C=C1C[C@@]23CC[C@H]4[C@@](C)(CCC[C@@]4(C)C(=O)O[C@@H]4O[C@H](CO)[C@@H](O)[C@H](O)[C@H]4O)[C@@H]2CC[C@]1(O[C@@H]1O[C@H](CO)[C@@H](O)[C@H](O[C@@H]2O[C@H](CO)[C@@H](O)[C@H](O)[C@H]2O)[C@H]1O[C@@H]1O[C@H](CO)[C@@H](O)[C@H](O)[C@H]1O)C3` [rebaudioside A], the “HPLC time course of transglucosylation” value is “the Q1140E-mutant not only converted more RebA into RebA-G than wild-type Gtf180-ΔN”.
